In publication PMC9090415, “Discovery of small molecule inhibitors of Plasmodium falciparum apicoplast DNA polymerase” (Journal of Enzyme Inhibition and Medicinal Chemistry, 2022):

Biological target: P. falciparum apicoplast DNA polymerase (Pf-apPOL) (Plasmodium falciparum, UniProt Q8ILY1)
Experiment: Fluorescence-based high-throughput DNA polymerase assay (molecular beacon), primary screen and dose-response
Format: biochemical
Conditions: for IC50: supplemental file 2, sheet IC50 nontoxic compounds, Pf-apPOL; for DNA Pol: 90 min, 10 µM
Description: The HT assay employs a molecular beacon, a stem-loop DNA template with a Cy3 dye and the Black Hole Quencher on the 3′ and 5′ ends of the DNA, respectively. Pf-apPOL concentration is based on a calculated absorptivity of ε280 = 56750 M^−1 cm^−1. Reactions were carried out at 25 °C, using Corning 3575 […] (well-volume, 20 µL). Assays testing for compound inhibition composed of reaction buffer (pH 7.9 in 50 mM potassium acetate, 20 mM Tris-acetate and 10 mM magnesium acetate), Pf-apPOL (20 nM), DNA substrate (20 nM), dNTPs (6 µM), and compound (10 µM in DMSO). The DNA and nucleotide substrates (dNTPs) were at concentrations of 20 nM and 6 µM, respectively, in the assay. Pf-apPOL was incubated in the reaction buffer with dNTPs and the compound of interest (10 µM, in the assay) at 25 °C for 10 min. The DNA substrate was then added and the reaction was allowed to proceed for 90 min at 25 °C.
Each assay plate contained 16 negative controls (no Pf-apPOL, DMSO present) and 16 positive controls (Pf-apPOL present, no DMSO). The fluorescence of each well was determined using a BioTek Synergy Neo fluorescence plate reader using excitation and emission wavelengths of 555 and 570 nm, respectively.
In the above, Min is the average of fluorescence emission of the negative controls (substrate only), Max the average fluorescence emission from the positive controls (enzyme + substrate), and Test the emission from the assays in the presence of compounds (enzyme + compound + substrates). […] […] The IC50 of each compound was determined using Equation (2): (2) IC50= Vmax/(1+ (I/IC50)^n)
In the above, n measures cooperativity, with n > 1 indicating synergistic binding of more than a single molecule of the compound.
To identify apPOL inhibitors we utilised our previously developed high-throughput DNA polymerase assay. The HT assay is based on a molecular beacon DNA template that forms a stem-loop with a Cy3 dye and the Black Hole Quencher on the 3′ and 5′ ends of the DNA, respectively. DNA polymerase activity extends an annealed primer through the stem region, displacing the fluorophore from the quencher, thereby increasing its fluorescence (Figure 1(A)). The assay accurately recapitulates the kinetic behaviour of apPOL, as measured through more conventional low-throughput gel-based assays. The Z′ factor for the assay described here was 0.9 across all plates (data not shown).
Figure 1. High-throughput screening. (A) The fluorescent-based DNA polymerase assay used to screen the compound libraries. The DNA template strand is a hairpin loop with a primer annealed to the loop. The 3’ end of the primer is 11 bases away from the 6 bp duplex. Strand displacement activity of the DNA polymerase separates the Cy3 dye from the Black hole quencher leading to an increase in fluorescent signal. (B) The high-throughput assay workflow. The DNA polymerase is incubated with […] compound for 10 min prior to addition of the hairpin substrate. The reaction is quenched at 3 different time points and the fluorescent signal is measured and % inhibition is determined using the provided equation.

Sequence of P. falciparum apicoplast DNA polymerase (Pf-apPOL) (Q8ILY1 entry or part of it): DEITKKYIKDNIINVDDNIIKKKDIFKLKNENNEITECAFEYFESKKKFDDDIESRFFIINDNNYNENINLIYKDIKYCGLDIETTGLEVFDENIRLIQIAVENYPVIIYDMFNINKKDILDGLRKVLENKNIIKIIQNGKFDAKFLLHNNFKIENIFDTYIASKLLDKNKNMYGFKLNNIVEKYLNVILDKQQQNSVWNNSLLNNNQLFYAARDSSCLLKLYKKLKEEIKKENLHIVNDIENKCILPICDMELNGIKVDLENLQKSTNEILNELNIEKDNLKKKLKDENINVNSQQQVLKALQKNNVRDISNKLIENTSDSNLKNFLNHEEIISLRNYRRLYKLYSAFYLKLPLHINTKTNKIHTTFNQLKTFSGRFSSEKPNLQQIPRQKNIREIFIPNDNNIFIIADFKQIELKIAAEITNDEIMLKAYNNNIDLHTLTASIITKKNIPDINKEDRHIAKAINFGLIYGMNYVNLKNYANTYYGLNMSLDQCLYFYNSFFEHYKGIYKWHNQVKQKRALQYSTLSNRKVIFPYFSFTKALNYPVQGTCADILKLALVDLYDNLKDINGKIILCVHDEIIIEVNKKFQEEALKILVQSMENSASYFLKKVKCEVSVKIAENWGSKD

Structure (SMILES): Cc1nc2c(oc3nc(-c4ccco4)c4c(c32)CC(C)(C)OC4)c(-c2ccccc2)c1C(=O)O [Molecule 86]
- IC50: 7.41 µM

Structure (SMILES): CCOc1ccccc1-c1nc(-c2ccc(=O)[nH]c2)no1 [Molecule 76]
- IC50: 38.7 µM

Structure (SMILES): O=C(NNC(=O)c1ccc(Cl)cc1)C(=O)NNC(=O)c1ccc(Cl)cc1 [Molecule 25]
- IC50: 9.83 µM

Structure (SMILES): CC(C)(C)c1cc(C(=O)C(C#N)=NNc2cccc(Cl)c2)no1 [Molecule 98, N#CC(=NNc1cccc(c1)Cl)C(=O)c1noc(c1)C(C)(C)C]
- DNA Pol ('DNA Pol' of the 186 hits list (primary screen result), unit not given): 96
- % inhibition Apo pol 10' (DRC-1, concentration 2.5): 10.7073%
- % inhibition Apo pol 10' (DRC-1, concentration 5): 31.7551%
- % inhibition Apo pol 10' (DRC-1, concentration 10): 51.803%
- % inhibition Apo pol 10' (DRC-1, concentration 20): 87.204%
- % inhibition Apo pol 10' (DRC-1, concentration 40): 82.704%
- % inhibition Apo pol 10' (DRC-1, concentration 80): 96.4114%
- % inhibition Apol 90' (DRC-1, 90', concentration 2.5): 12.918%
- % inhibition Apol 90' (DRC-1, 90', concentration 5): 31.5705%
- % inhibition Apol 90' (DRC-1, 90', concentration 10): 54.1185%
- % inhibition Apol 90' (DRC-1, 90', concentration 20): 87.0322%
- % inhibition Apol 90' (DRC-1, 90', concentration 40): 80.829%
- % inhibition Apol 90' (DRC-1, 90', concentration 80): 96.7924%
- % inhibition apPOL 180' (DRC-1, concentration 2.5): 9.726%
- % inhibition apPOL 180' (DRC-1, concentration 5): 23.8574%
- % inhibition apPOL 180' (DRC-1, concentration 10): 46.8466%
- % inhibition apPOL 180' (DRC-1, concentration 20): 85.1856%
- % inhibition apPOL 180' (DRC-1, concentration 40): 79.4059%
- % inhibition apPOL 180' (DRC-1, concentration 80): 96.5379%
- % inhibition ApPOL 90' (DRC-2, 90', concentration 20 (unit not given)): 61%
- % inhibition Apo pol 5' (DRC-2, concentration 2.5): 8%
- % inhibition Apo pol 5' (DRC-2, concentration 5): 18%
- % inhibition Apo pol 5' (DRC-2, concentration 10): 30%
- % inhibition Apo pol 5' (DRC-2, concentration 20): 47%
- % inhibition Apo pol 5' (DRC-2, concentration 40): 46%
- % inhibition Apo pol 5' (DRC-2, concentration 80): 61%
- % inhibition Apo pol 5' (DRC-2, concentration 80 (unit not given)): 61%
- % inhibition Apol 40' (DRC-2, concentration 2.5): 10%
- % inhibition Apol 40' (DRC-2, concentration 5): 24%
- % inhibition Apol 40' (DRC-2, concentration 10): 40%
- % inhibition Apol 40' (DRC-2, concentration 20): 60%
- % inhibition Apol 40' (DRC-2, concentration 40): 56%
- % inhibition Apol 40' (DRC-2, concentration 80): 76%
- % inhibition ApPOL 90' (DRC-2, 90', concentration 2.5): 8.47%
- % inhibition ApPOL 90' (DRC-2, 90', concentration 5): 21%
- % inhibition ApPOL 90' (DRC-2, 90', concentration 10): 39%
- % inhibition ApPOL 90' (DRC-2, 90', concentration 20): 61%
- % inhibition ApPOL 90' (DRC-2, 90', concentration 40): 58%
- % inhibition ApPOL 90' (DRC-2, 90', concentration 80): 79%
- % inhibition apPOL 180' (DRC-2, concentration 2.5): 2.49%
- % inhibition apPOL 180' (DRC-2, concentration 5): 14%
- % inhibition apPOL 180' (DRC-2, concentration 10): 31%
- % inhibition apPOL 180' (DRC-2, concentration 20): 57%
- % inhibition apPOL 180' (DRC-2, concentration 40): 55%
- % inhibition apPOL 180' (DRC-2, concentration 80): 81%
- DNA Pol (primary screen value of the library well, unit not given): 96

Structure (SMILES): Cc1cc(C)c2c(c1)C1C=CCC1C(c1ccc(C(=O)O)cc1)N2 (centres unmarked) [Molecule 102, Cc1cc(C)c2c(c1)C1C=CCC1C(N2)c1ccc(cc1)C(=O)O]
- DNA Pol ('DNA Pol' of the 186 hits list (screen value)): 60
- % inhibition Apo pol 10' (DRC-1, conc 2.5): 46.2676%
- % inhibition Apo pol 10' (DRC-1, conc 5): 62.6778%
- % inhibition Apo pol 10' (DRC-1, conc 10): 76.4739%
- % inhibition Apo pol 10' (DRC-1, conc 20): 82.8067%
- % inhibition Apo pol 10' (DRC-1, conc 40): 91.6956%
- % inhibition Apo pol 10' (DRC-1, conc 80): 93.5405%
- % inhibition Apol 90' (DRC-1, 90', conc 2.5): 14.3309%
- % inhibition Apol 90' (DRC-1, 90', conc 5): 28.3959%
- % inhibition Apol 90' (DRC-1, 90', conc 10): 47.4171%
- % inhibition Apol 90' (DRC-1, 90', conc 20): 62.2374%
- % inhibition Apol 90' (DRC-1, 90', conc 40): 86.2676%
- % inhibition Apol 90' (DRC-1, 90', conc 80): 94.9161%
- % inhibition apPOL 180' (DRC-1, conc 2.5): 1.778%
- % inhibition apPOL 180' (DRC-1, conc 5): 12.6672%
- % inhibition apPOL 180' (DRC-1, conc 10): 32.4501%
- % inhibition apPOL 180' (DRC-1, conc 20): 53.0918%
- % inhibition apPOL 180' (DRC-1, conc 40): 83.5057%
- % inhibition apPOL 180' (DRC-1, conc 80): 95.0431%
- % inhibition Apo pol 5' (DRC-2, conc 2.5): 40%
- % inhibition Apo pol 5' (DRC-2, conc 5): 51%
- % inhibition Apo pol 5' (DRC-2, conc 10): 55%
- % inhibition Apo pol 5' (DRC-2, conc 20): 58%
- % inhibition Apo pol 5' (DRC-2, conc 40): 59%
- % inhibition Apo pol 5' (DRC-2, conc 80): 58%
- % inhibition Apo pol 5' (DRC-2, concentration 2.5): 40%
- % inhibition Apo pol 5' (DRC-2, concentration 20): 58%
- % inhibition Apo pol 5' (DRC-2, concentration 40): 59%
- % inhibition Apo pol 5' (DRC-2, concentration 80): 58%
- % inhibition Apol 40' (DRC-2, conc 2.5): 34%
- % inhibition Apol 40' (DRC-2, conc 5): 50%
- % inhibition Apol 40' (DRC-2, conc 10): 59%
- % inhibition Apol 40' (DRC-2, conc 20): 71%
- % inhibition Apol 40' (DRC-2, conc 40): 76%
- % inhibition Apol 40' (DRC-2, conc 80): 75%
- % inhibition Apol 40' (DRC-2, concentration 10): 59%
- % inhibition Apol 40' (DRC-2, concentration 80): 75%
- % inhibition ApPOL 90' (DRC-2, 90', conc 2.5): 28%
- % inhibition ApPOL 90' (DRC-2, 90', conc 5): 47%
- % inhibition ApPOL 90' (DRC-2, 90', conc 10): 58%
- % inhibition ApPOL 90' (DRC-2, 90', conc 20): 73%
- % inhibition ApPOL 90' (DRC-2, 90', conc 40): 80%
- % inhibition ApPOL 90' (DRC-2, 90', conc 80): 79%
- % inhibition ApPOL 90' (DRC-2, 90', concentration 10): 58%
- % inhibition apPOL 180' (DRC-2, conc 2.5): 19%
- % inhibition apPOL 180' (DRC-2, conc 5): 40%
- % inhibition apPOL 180' (DRC-2, conc 10): 54%
- % inhibition apPOL 180' (DRC-2, conc 20): 75%
- % inhibition apPOL 180' (DRC-2, conc 40): 83%
- % inhibition apPOL 180' (DRC-2, conc 80): 83%
- % inhibition apPOL 180' (DRC-2, concentration 5): 40%
- % inhibition apPOL 180' (DRC-2, concentration 20): 75%
- % inhibition apPOL 180' (DRC-2, concentration 40): 83%
- % inhibition apPOL 180' (DRC-2, concentration 80): 83%
- DNA Pol (primary screen value, "DNA Pol"): 60

Structure (SMILES): CCCCCc1c2c(cc(O)c1C(=O)O)OC(=O)c1c(cc(OC)cc1C(=O)CCCC)O2 [Molecule 24]
- IC50: 9.31 µM

Structure (SMILES): Cc1nc2c(oc3nc(-c4ccoc4)c4c(c32)CC(C)(C)OC4)c(-c2ccccc2)c1C(=O)O [Molecule 93]
- IC50: 6.29 µM

Structure (SMILES): Cn1nc(C(=O)N2CCc3c(nc4cc(-c5ccccc5)[nH]n4c3=O)C2)c2ccccc21 [Molecule 18]
- IC50: 6.38 µM
